Test results as given in patent US20100216120A1, “Rapid infectious virus assay” (priority 2009, published 2010).

Assays:
[1] = tested on: infectious HIV from monocytes; assay: ATP-triggered release of infectious virus from CD8-depleted PBMC monocytes, TZM reporter cell luciferase readout, no fibronectin coating; assay type: cell-based, Human Immunodeficiency Virus (HIV); conditions: ATP 1-5 mM, absence of fibronectin coating, 200 k CD8-depleted PBMCs, 3 days; HIV-positive vs negative individuals
Procedure: ATP (1 mM) was then added in a volume of 100 ul for a 3 hrs at 37° C. TZMs (10K) were then added on to the wells in 100 ul in RPMI 10%. After 3 days later, the supernatants were removed and steady-glo reagent was added on to the TZMs and read on a Spectramax.
The inventors tested the ability of ATP (1-5 mM) to release infectious virus from monocytes in absence of fibronectin coating on to the tissue culture wells. […] Further differentiation and/or activation is useful to enhance virus release.

[2] = tested on: infectious HIV from monocytes; assay: Rapid Infectious Viral Assay (RIVA): virus release from monocytes on fibronectin-coated wells, TZM-bl reporter cell luciferase readout; assay type: cell-based, Human Immunodeficiency Virus (HIV); conditions: ATP 1 mM
Procedure: The plates were then coated with fibronectin and BSA. 150 k CD8-depleted PBMCs were added on to a 96-well for 3 hrs followed by washings using RPMI 10%. ATP (1 mM) was then added in a volume of 100 ul for a 3 hrs at 37° C. TZMs (15K) were then added on to the wells the next day. 5 days later after launch, the supernatants were removed and steady-glo reagent was added on to the TZMs and read on a Spectramax.
ATP (1 mM) was then added in a volume of 100 ul for a 3 hrs at 37° C. TZMs (10K) were then added on to the wells. 4 days later after launch, the supernatants were removed and steady-glo reagent was added on to the TZMs and read on a Spectramax.
ATP (1 mM) was then added in a volume of 100 ul for a 3 hrs at 37° C. TZMs (10K) were then added on to the wells. 3 days later after launch, the supernatants were removed and steady-glo reagent was added on to the TZMs and read on a Spectramax.
ATP (1 mM) was then added in a volume of 100 ul for a 3 hrs at 37° C. TZMs (20K) were then added on to the wells. 3 days later after launch, the supernatants were removed and steady-glo reagent was added on to the TZMs and read on a Spectramax.
In a preferred embodiment, CD8-depleted PBMC were isolated from HIV-negative donors and HIV patients with VL<50 copies/ml using Dynal beads. Peripheral monocytes (CD14) were used in a rapid infectious assay using TZM-bl coculture technique. The inventors compare this shorter infection assay to classical method of PBMC activation with anti CD3/CD28 antibodies. Major CCR5 blockers were addressed. Presence of infectious virus was also investigated using FACS and rtPCR.
FIG. 2 illustrates a test of the ability of ATP (1 mM) to release infectious virus from monocytes in presence of fibronectin coating on to the tissue culture wells. The HIV infectivity was measured by measuring the RLU on a Spectramax M5 plate readert.
1. A 96 well plate (a 48 well can be used) is coated with 100 ul RPMI containing fibronectin (50 ug/ml) in BSA (0.5%) for 30 minutes at room temperature.
2. CD8-depleted PBMC's which have been frozen at 2 million cells per ml and stored at −80 C in 22% FBS and 10% DMSO are thawed quickly and about 100 ul containing 200 k cells are added to the wells immediately
3. Let cells of interest attach for 2 hours (longer even overnight up to 20 hrs can be used)
4. Remove all the media which contains non-adherent cells and wash with 200 ul of RPMI with 10% FBS, pipetting gently, removing this wash media. The adherent monocytes remain.
5. […]
7. Finally quantitate how much viral infection has occurred by reading luciferase production using Steady Glow reagent (Promega) and a luminometer/spectrophotometer. […]

Nc1ncnc2c1ncn2[C@@H]1O[C@H](COP(=O)(O)OP(=O)(O)OP(=O)(O)O)[C@@H](O)[C@H]1O [ATP]
release of infectious virus from monocytes (RLU on TZMs) [1]: incapable of triggering release of viral particles from monocytes | release of infectious virus from monocytes (RLU on TZMs) ([2]; fibronectin and BSA coating, 100 k CD8-depleted PBMCs O/N, 3-day assay (Format #3)): triggers the release of the virus | release of infectious virus from monocytes (RLU on TZMs) ([2]; fibronectin and BSA coating, 100 k CD8-depleted PBMCs O/N, 4-day assay (Format #2)): triggers the release of the virus | release of infectious virus from monocytes (RLU on TZMs) ([2]; fibronectin and BSA coating, 225 k cells, 48-well, 4-day assay (Format #4)): triggers the release of the virus | release of infectious virus from monocytes (RLU on TZMs) ([2]; fibronectin coating, 150 k CD8-depleted PBMCs, 5 day assay (Format #1)): capable of triggering release of viral particles from monocytes
